According to ChEMBL document CHEMBL1933015, “Synthesis and evaluation of novel prodrugs of caspase inhibitors” (Bioorg Med Chem Lett, 2012):

Assays:
[1] = AUC (0 to infinity) in Sprague-Dawley rat at 10 mg/kg, po; format: ADME, organism-based; parameters: time infinity, dose 10 mg/kg, route oral; conditions: plasma
[2] = AUC (0 to infinity) in Sprague-Dawley rat at 10 mg/kg, iv; format: ADME, organism-based; parameters: time infinity, dose 10 mg/kg, route intravenous; conditions: plasma
[3] = Tmax in Sprague-Dawley rat at 10 mg/kg, po; format: ADME, organism-based; parameters: dose 10 mg/kg, route oral; conditions: in vivo
[4] = Oral bioavailability in Sprague-Dawley rat at 10 mg/kg; format: ADME, organism-based; conditions: in vivo
[5] = Clearance in Sprague-Dawley rat at 10 mg/kg, iv; format: ADME, organism-based; parameters: dose 10 mg/kg, route intravenous; conditions: in vivo
[6] = Half life in Sprague-Dawley rat at 10 mg/kg, po; format: ADME, organism-based; parameters: dose 10 mg/kg, route oral; conditions: in vivo
[7] = Half life in Sprague-Dawley rat at 10 mg/kg, iv; format: ADME, organism-based; parameters: dose 10 mg/kg, route intravenous; conditions: in vivo
Plasma [8] = assay: Half life in rat plasma assessed as < 50% of prodrug is remaining; format: ADME, cell-free
[9] = Half life in buffer at pH 4 assessed as prodrug conversion; format: physicochemical
[10] = Permeability from basal to apical side across human Caco2 cells; format: ADME, cell-based; conditions: Caco-2, read-out: permeability
Plasma [11] = assay: Half life in human plasma assessed as around 50% of prodrug is remaining; format: ADME, cell-free
[12] = Half life in buffer at pH 6 assessed as prodrug conversion; format: physicochemical
[13] = Half life in buffer at pH 7.4 assessed as prodrug conversion; format: physicochemical
[14] = Permeability from apical to basal side across human Caco2 cells; format: ADME, cell-based; conditions: Caco-2, read-out: permeability
[15] = Half life in buffer at pH 9 assessed as prodrug conversion; format: physicochemical
Rattus norvegicus [16] = assay: AUC (0 to infinity) in Sprague-Dawley rat assessed as VX166 level in plasma at 10 mg/kg, po; format: ADME, organism-based; parameters: time infinity, dose 10 mg/kg, route oral; conditions: in vivo
Rattus norvegicus [17] = assay: Half life in Sprague-Dawley rat assessed as prodrug conversion to VX166 at 10 mg/kg, po; format: ADME, organism-based; parameters: dose 10 mg/kg, route oral; conditions: in vivo
Plasma [18] = assay: Half life in rat plasma assessed as < 10% of prodrug is remaining; format: ADME, cell-free
Rattus norvegicus [19] = assay: Oral bioavailability in Sprague-Dawley rat assessed as VX166 level at 10 mg/kg; format: ADME, organism-based; conditions: in vivo
Rattus norvegicus [20] = assay: Tmax in Sprague-Dawley rat assessed as VX166 level at 10 mg/kg, po; format: ADME, organism-based; parameters: dose 10 mg/kg, route oral; conditions: in vivo
Plasma [21] = assay: Half life in human plasma assessed as < 50% of prodrug is remaining; format: ADME, cell-free

t1/2 [9] | Papp B→A [10] | t1/2 (Plasma [11]) | t1/2 [12] | t1/2 [13] | Papp A→B [14] | t1/2 [15] | t1/2 (Plasma [18]) | SMILES | further results
72 min | 10 ×10⁻⁶ cm/s | 1 min | 1490 min | 1780 min | 0.5 ×10⁻⁶ cm/s | 438 min | – | C[C@H](NC(=O)C(=O)Nc1ccccc1C(C)(C)C)C1=N[C@H]2CC(=O)O[C@@]2(COc2c(F)c(F)cc(F)c2F)O1 | t1/2 (Plasma [8]): < 1 min
– | 10 ×10⁻⁶ cm/s | – | – | – | 0.5 ×10⁻⁶ cm/s | – | – | C[C@H](NC(=O)C(=O)Nc1ccccc1C(C)(C)C)C(=O)N[C@@H](CC(=O)O)C(=O)COc1c(F)c(F)cc(F)c1F [EMRICASAN] | –

The next lines start with the compound.

SMILES | t1/2 [9] | Papp B→A [10] | t1/2 (Plasma [11]) | t1/2 [12] | t1/2 [13] | Papp A→B [14] | t1/2 [15] | t1/2 (Plasma [18]) | further results
CC[C@@H](C(=O)N[C@@H](CC(=O)O)C(=O)COc1c(F)c(F)cc(F)c1F)n1cccc(NC(=O)OC)c1=O | – | – | – | – | – | – | – | – | AUC(0-inf) [1]: 860 ng·h/mL; AUC(0-inf) [2]: 6160 ng·h/mL; Tmax [3]: 19.8 min; bioavailability [4]: 14%; clearance [5]: 22.3 mL/min/kg; half-life [6]: 91.8 min; half-life [7]: 31.8 min
CC[C@@H](C1=N[C@H]2CC(=O)O[C@@]2(COc2c(F)c(F)cc(F)c2F)O1)n1cccc(NC(=O)OC)c1=O | 108 min | – | – | 522 min | 192 min | – | 42 min | < 1 min | AUC (Rattus norvegicus [16]): 1660 ng·h/mL; t1/2 (Rattus norvegicus [17]): 58.2 min; F (Rattus norvegicus [19]): 27%; Tmax (Rattus norvegicus [20]): 37.8 min; t1/2 (Plasma [21]): < 1 min
O=C1C[C@@H]2N=C(c3cccc4ccccc34)O[C@]2(CF)O1 | 864 min | – | 1 min | 792 min | 240 min | – | 48 min | < 1 min | –
